According to PubChem BioAssay AID2060617 (Molecular Pharmacology Branch, DTP, NCI, 2025):
“And” between values parts separate entries of the source, which are not always exact repeats. Identical values can stand only once.

Tested on: 485368-065-R4-J2-PDC spheroids with HUVEC/MSC, viability
Assay: Anticancer human tumor 485368-065-R4-J2-PDC patient-derived pancreatic carcinoma cell line growth inhibition [CLK]
Conditions: for viability, T/C: stronger effect = lower value
Method in brief: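 Multi-cell-type spheroids combined patient-derived tumor cells with HUVEC endothelial cells and human mesenchymal stem cells. Paired agents were dosed in half-log steps down from about clinical Cmax, or from 10 microM where Cmax was unknown.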

[1] = curve of first compound, second compound 0.0316 µM
[2] = curve of first compound, second compound 0.1 µM
[3] = curve of first compound, second compound 0.316 µM
[4] = curve of first compound, second compound 1 µM
[5] = curve of first compound, second compound 3.16 µM
[6] = curve of first compound, second compound 10 µM
[7] = second compound 0.0316 µM, first compound 0.0316 µM
[8] = second compound 0.0316 µM, first compound 0.1 µM
[9] = second compound 0.0316 µM, first compound 0.316 µM
[10] = second compound 0.0316 µM, first compound 1 µM
[11] = second compound 0.0316 µM, first compound 3.16 µM
[12] = second compound 0.0316 µM, first compound 10 µM
[13] = second compound 0.1 µM, first compound 0.0316 µM
[14] = second compound 0.1 µM, first compound 0.1 µM
[15] = second compound 0.1 µM, first compound 0.316 µM
[16] = second compound 0.1 µM, first compound 1 µM
[17] = second compound 0.1 µM, first compound 3.16 µM
[18] = second compound 0.1 µM, first compound 10 µM
[19] = second compound 0.316 µM, first compound 0.0316 µM
[20] = second compound 0.316 µM, first compound 0.1 µM
[21] = second compound 0.316 µM, first compound 0.316 µM
[22] = second compound 0.316 µM, first compound 1 µM
[23] = second compound 0.316 µM, first compound 3.16 µM
[24] = second compound 0.316 µM, first compound 10 µM
[25] = second compound 1 µM, first compound 0.0316 µM
[26] = second compound 1 µM, first compound 0.1 µM
[27] = second compound 1 µM, first compound 0.316 µM
[28] = second compound 1 µM, first compound 1 µM
[29] = second compound 1 µM, first compound 3.16 µM
[30] = second compound 1 µM, first compound 10 µM
[31] = second compound 3.16 µM, first compound 0.0316 µM
[32] = second compound 3.16 µM, first compound 0.1 µM
[33] = second compound 3.16 µM, first compound 0.316 µM
[34] = second compound 3.16 µM, first compound 1 µM
[35] = second compound 3.16 µM, first compound 3.16 µM
[36] = second compound 3.16 µM, first compound 10 µM
[37] = second compound 10 µM, first compound 0.0316 µM
[38] = second compound 10 µM, first compound 0.1 µM
[39] = second compound 10 µM, first compound 0.316 µM
[40] = second compound 10 µM, first compound 1 µM
[41] = second compound 10 µM, first compound 3.16 µM
[42] = second compound 10 µM, first compound 10 µM
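Further: spheroids exposed to compounds for seven days.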
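Wherever viability, T/C is given: 100% = DMSO vehicle control wells.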

## C=C(F)C(=O)N1CCN(c2nc(OCC3CCCN3C)nc3c2CCN(c2cccc4cccc(Cl)c24)C3)CC1CC#N (stereo not given) + CN1CCN(c2cc(C(=O)Nc3cc4cc(-c5cnn(C)c5)ccc4cn3)ccn2)CC1
[1]
  IC50: > 10 µM
[2]
  IC50: > 10 µM
[3]
  IC50: > 10 µM
[4]
  IC50: < 0.0316 µM
[5]
  IC50: < 0.0316 µM
[6]
  IC50: < 0.0316 µM
[7]
  viability, T/C: 114%
[8]
  viability, T/C: 116%
[9]
  viability, T/C: 108%
[10]
  viability, T/C: 114%
[11]
  viability, T/C: 105%
[12]
  viability, T/C: 110%
[13]
  viability, T/C: 109%
[14]
  viability, T/C: 105%
[15]
  viability, T/C: 106%
[16]
  viability, T/C: 109%
[17]
  viability, T/C: 105%
[18]
  viability, T/C: 95.3%
[19]
  viability, T/C: 89.7%
[20]
  viability, T/C: 85.6%
[21]
  viability, T/C: 89.4%
[22]
  viability, T/C: 77.8%
[23]
  viability, T/C: 77.4%
[24]
  viability, T/C: 57.4%
[25]
  viability, T/C: 1.02%
[26]
  viability, T/C: 1.73%
[27]
  viability, T/C: 2.07%
[28]
  viability, T/C: 1.58%
[29]
  viability, T/C: 1.92%
[30]
  viability, T/C: 3.55%
[31]
  viability, T/C: 1.58%
[32]
  viability, T/C: 1.31%
[33]
  viability, T/C: 1.13%
[34]
  viability, T/C: 2.84%
[35]
  viability, T/C: 1.64%
[36]
  viability, T/C: 2%
[37]
  viability, T/C: 1.69%
[38]
  viability, T/C: 2.28%
[39]
  viability, T/C: 1.56%
[40]
  viability, T/C: 2.01%
[41]
  viability, T/C: 3.1%
[42]
  viability, T/C: 1.56%

## O=C(c1cc(Cc2n[nH]c(=O)c3ccccc23)ccc1F)N1CCN(C(=O)C2CC2)CC1 + CN1CCN(c2cc(C(=O)Nc3cc4cc(-c5cnn(C)c5)ccc4cn3)ccn2)CC1
[1]
  IC50: > 10 µM
[2]
  IC50: > 10 µM
[3]
  IC50: 8.88 µM
[4]
  IC50: < 0.0316 µM
[5]
  IC50: < 0.0316 µM
[6]
  IC50: < 0.0316 µM
[7]
  viability, T/C: 92.6%
[8]
  viability, T/C: 111%
[9]
  viability, T/C: 106%
[10]
  viability, T/C: 110%
[11]
  viability, T/C: 105%
[12]
  viability, T/C: 82.6%
[13]
  viability, T/C: 107%
[14]
  viability, T/C: 105%
[15]
  viability, T/C: 105%
[16]
  viability, T/C: 103%
[17]
  viability, T/C: 105%
[18]
  viability, T/C: 76%
[19]
  viability, T/C: 79%
[20]
  viability, T/C: 79.9%
[21]
  viability, T/C: 79.7%
[22]
  viability, T/C: 81.1%
[23]
  viability, T/C: 70.5%
[24]
  viability, T/C: 47.5%
[25]
  viability, T/C: 1.08%
[26]
  viability, T/C: 1.02%
[27]
  viability, T/C: 1.67%
[28]
  viability, T/C: 2.06%
[29]
  viability, T/C: 2.06%
[30]
  viability, T/C: 2.39%
[31]
  viability, T/C: 1.23%
[32]
  viability, T/C: 1.3%
[33]
  viability, T/C: 1.64%
[34]
  viability, T/C: 2.47%
[35]
  viability, T/C: 1.39%
[36]
  viability, T/C: 3.02%
[37]
  viability, T/C: 1.53%
[38]
  viability, T/C: 1.87%
[39]
  viability, T/C: 2.81%
[40]
  viability, T/C: 2.7%
[41]
  viability, T/C: 2.29%
[42]
  viability, T/C: 1.73%

## Nc1ccn(C2OC(CO)C(O)C2(F)F)c(=O)n1 (stereo not given) + CN1CCN(c2cc(C(=O)Nc3cc4cc(-c5cnn(C)c5)ccc4cn3)ccn2)CC1
[1]
  IC50: < 0.0316 µM
[2]
  IC50: < 0.0316 µM
[3]
  IC50: < 0.0316 µM
[4]
  IC50: < 0.0316 µM
[5]
  IC50: < 0.0316 µM
[6]
  IC50: < 0.0316 µM
[7]
  viability, T/C: 48.5%
[8]
  viability, T/C: 32.7%
[9]
  viability, T/C: 24.1%
[10]
  viability, T/C: 24.2%
[11]
  viability, T/C: 25.3%
[12]
  viability, T/C: 21.6%
[13]
  viability, T/C: 39.2%
[14]
  viability, T/C: 21.1%
[15]
  viability, T/C: 19.5%
[16]
  viability, T/C: 16.6%
[17]
  viability, T/C: 16.6%
[18]
  viability, T/C: 13.8%
[19]
  viability, T/C: 28.5%
[20]
  viability, T/C: 16.6%
[21]
  viability, T/C: 14.1%
[22]
  viability, T/C: 14.9%
[23]
  viability, T/C: 14.1%
[24]
  viability, T/C: 12.8%
[25]
  viability, T/C: 0.77%
[26]
  viability, T/C: 2.15%
[27]
  viability, T/C: 3.11%
[28]
  viability, T/C: 1.96%
[29]
  viability, T/C: 2.6%
[30]
  viability, T/C: 3.01%
[31]
  viability, T/C: 1.85%
[32]
  viability, T/C: 1.43%
[33]
  viability, T/C: 2.71%
[34]
  viability, T/C: 4.76%
[35]
  viability, T/C: 2.68%
[36]
  viability, T/C: 5.26%
[37]
  viability, T/C: 1.32%
[38]
  viability, T/C: 2.34%
[39]
  viability, T/C: 1.93%
[40]
  viability, T/C: 2.61%
[41]
  viability, T/C: 2.98%
[42]
  viability, T/C: 2.55%

## CC1(C)CCC(CN2CCN(c3ccc(C(=O)NS(=O)(=O)c4ccc(NCC5CCOCC5)c([N+](=O)[O-])c4)c(Oc4cnc5[nH]ccc5c4)c3)CC2)=C(c2ccc(Cl)cc2)C1
Compound 0.0316 µM
  viability, T/C: 94.5% and 89%
Compound 0.1 µM
  viability, T/C: 101% and 106%
Compound 0.316 µM
  viability, T/C: 98.6% and 95%
Compound 1 µM
  viability, T/C: 100% and 93.7%
Compound 3.16 µM
  viability, T/C: 120% and 119%
Compound 10 µM
  viability, T/C: 33.1% and 28%
Curve of compound
  IC50: 7.56 µM and 7.07 µM

## COc1c(OCCCN2CCOCC2)ccc2c3n(c(=NC(=O)c4cnc(N)nc4)nc12)CCN3
Compound 0.00316 µM
  viability, T/C: 97% and 92.1%
Compound 0.01 µM
  viability, T/C: 101% and 121%
Compound 0.0316 µM
  viability, T/C: 109% and 111%
Compound 0.1 µM
  viability, T/C: 77.3% and 65.7%
Compound 0.316 µM
  viability, T/C: 50.9% and 52%
Compound 1 µM
  viability, T/C: 41.1% and 39.6%
Curve of compound
  IC50: 0.281 µM and 0.248 µM

## C#Cc1c(F)ccc2cc(O)cc(-c3ncc4c(N5CC6CCC(C5)N6)nc(OCC56CCCN5CC(F)C6)nc4c3F)c12 (stereo not given) + CNC(=O)c1ccc(Nc2nc(OC3CCCC3)c3c(-c4ccc5nc(C)oc5c4)c[nH]c3n2)c(OC)c1
[1]
  IC50: > 10 µM
[2]
  IC50: > 10 µM
[3]
  IC50: > 10 µM
[4]
  IC50: > 10 µM
[5]
  IC50: 6.95 µM
[6]
  IC50: 5.79 µM
[7]
  viability, T/C: 103%
[8]
  viability, T/C: 115%
[9]
  viability, T/C: 90.3%
[10]
  viability, T/C: 102%
[11]
  viability, T/C: 104%
[12]
  viability, T/C: 108%
[13]
  viability, T/C: 96.1%
[14]
  viability, T/C: 99.8%
[15]
  viability, T/C: 108%
[16]
  viability, T/C: 98.4%
[17]
  viability, T/C: 103%
[18]
  viability, T/C: 108%
[19]
  viability, T/C: 91.4%
[20]
  viability, T/C: 86.5%
[21]
  viability, T/C: 96.7%
[22]
  viability, T/C: 87%
[23]
  viability, T/C: 75.8%
[24]
  viability, T/C: 70.3%
[25]
  viability, T/C: 82.8%
[26]
  viability, T/C: 79.4%
[27]
  viability, T/C: 80.3%
[28]
  viability, T/C: 71.5%
[29]
  viability, T/C: 68.8%
[30]
  viability, T/C: 52.3%
[31]
  viability, T/C: 77.5%
[32]
  viability, T/C: 72.5%
[33]
  viability, T/C: 77.1%
[34]
  viability, T/C: 73.2%
[35]
  viability, T/C: 59.4%
[36]
  viability, T/C: 45%
[37]
  viability, T/C: 74.7%
[38]
  viability, T/C: 73.1%
[39]
  viability, T/C: 68.5%
[40]
  viability, T/C: 67.7%
[41]
  viability, T/C: 57%
[42]
  viability, T/C: 43.1%

## CC1COCCN1c1cc(C2(S(C)(=N)=O)CC2)nc(-c2ccnc3[nH]ccc23)n1 (stereo not given)
Compound 0.0316 µM
  viability, T/C: 91.5% and 90.7%
Compound 0.1 µM
  viability, T/C: 97.5% and 93.1%
Compound 0.316 µM
  viability, T/C: 94.5% and 104%
Compound 1 µM
  viability, T/C: 108% and 91.3%
Compound 3.16 µM
  viability, T/C: 109% and 108%
Compound 10 µM
  viability, T/C: 102% and 113%
Curve of compound
  IC50: > 10 µM

## CC(=O)O[C@H]1C(=O)[C@@]2(C)[C@H]([C@H](OC(=O)c3ccccc3)[C@]3(O)C[C@H](OC(=O)[C@H](O)[C@@H](NC(=O)c4ccccc4)c4ccccc4)C(C)=C1C3(C)C)[C@]1(OC(C)=O)CO[C@@H]1C[C@@H]2O
Compound 0.0316 µM
  viability, T/C: 58.2% and 59.8%
Compound 0.1 µM
  viability, T/C: 50.1% and 56.1%
Compound 0.316 µM
  viability, T/C: 49% and 52.2%
Compound 1 µM
  viability, T/C: 48.5% and 43.6%
Compound 3.16 µM
  viability, T/C: 49.9% and 52.5%
Compound 10 µM
  viability, T/C: 48.8% and 65.5%
